Paper PMC7051184, “C9orf72 arginine-rich dipeptide repeat proteins disrupt karyopherin-mediated nuclear import” (eLife, 2020)
One block for each molecule: values may come before it. Where a SMILES comes first, the peptide text is derived from it. Where no end group is shown, it is not given here.

What was measured:
[1] = target: T1, importin β-mediated nuclear import of Rango (Homo sapiens, UniProt Q14974); assay: Fractionated Rango transport assay (aggregates present or supernatant only), HeLa; format: cell-based; settings: with AF647-labeled importin β
Experimental: A single cell-derived clone of HeLa cells (ATCC, Manassas, VA; mycoplasma negative and validated by STR profiling) were maintained in OptiMEM (Gibco/ThermoFisher) with 4% FBS and plated on uncoated optical glass-bottom 96 well plates, at appropriate densities to reach 70–90% confluence on the day of the transport assay. To permeabilize, cells were rinsed for 2 min in ice-cold PBS, and permeabilized on ice for 10 min in 15–30 µg/mL digitonin (Calbiochem, San Diego, CA) in permeabilization buffer (PRB, 20 mM HEPES, 110 mM KOAc, 5 mM Mg(OAc)2, 0.5 mM EGTA, 250 mM sucrose, pH 7.5, with protease inhibitor cocktail). Following permeabilization, cells were placed on ice and rinsed 3 × 5 min in transport buffer (TRB, 20 mM HEPES, 110 mM KOAc, 2 mM Mg(OAc)2, 5 mM NaOAc, 0.5 mM EGTA, 250 mM sucrose, pH 7.3, with protease inhibitor cocktail). The optimal digitonin concentration varied by cell density and passage number, and was optimized prior to each set of assays for the ability to permeabilize the majority of plasma membranes while maintaining nuclear exclusion of a 70 kD fluorescent dextran (ThermoFisher).
(§1) Reaction mixes consisting of 2.5 mg/ml lysate, ER, fluorescent cargo (200 nM Rango and YFP-M9-CFP, 500 nM GST-GFP-NLS), Hoechst, DPRs, RNA, or inhibitors (100 µM importazole (IPZ, Millipore Sigma); 0.8 mg/mL wheat germ agglutinin (WGA, Millipore Sigma) were assembled on ice during cell permeabilization. DPRs or inhibitors were allowed to equilibrate in cell lysate for at least 30 min prior to initiation of transport. Every plate included: (1) Cargo alone: fluorescent cargo, but no ER or lysate, (2) Untreated controls: fluorescent cargo, ER, and lysate, and (3) Inhibitor: fluorescent cargo, ER, lysate, and IPZ (Rango and GST-GFP-NLS reactions) or WGA (YFP-M9-CFP). Preassembled transport reactions were then transferred onto permeabilized cells via multichannel pipette, and allowed to proceed at room temperature for 2 hr (Rango, YFP-M9-CFP) or 4 hr (GST-GFP-NLS). Cells were fixed in 4% paraformaldehyde/PBS, rinsed 2x with PBS, and transferred to 50% glycerol/PBS for immediate imaging.
For a subset of neuron transport assays, transport was monitored live via time lapse imaging every 5 min for 30 min. […]
Multiple non-overlapping fields per well (4 for time-lapse imaging, 9-16 for fixed imaging), were captured at 40x on an ImageXpress Micro XLS high-content microscope (Molecular Devices, San Jose, CA), and the ratio of nuclear to cytoplasmic fluorescence intensity was calculated using the MetaXpress automated translocation-enhanced module. […] Resulting N/C ratios were expressed as % untreated, to permit comparisons across biological replicates.

[2] = tested on: nuclear transport of NLS-NES shuttle proteins; settings: synthetic peptide added to HeLa cells in the culture media; ref Vanneste et al., 2019; cited from earlier work
Text: (§2) Additional studies have since investigated mechanisms by which individual DPRs may disrupt the nuclear transport apparatus. […] PR20 was previously shown by STE ...

proteasome = settings: ref Gupta et al., 2017; cited from earlier work
Text: Throughout this study, we observed marked differences in the behavior of GR and PR. […] Based on their divergent molecular properties, the differing behavior of GR and PR is not surprising. On one hand, bot ...

[3] = tested on: Nup54 and 98 FG-domain polymers; settings: ref Shi et al., 2017; cited from earlier work
Text: The rate of passive transport through the NPC is governed by the FG-Nup barrier ([Mohr et al., 2009]; [Timney et al., 2016]; [Frey et al., 2018]), in addition to local concentrations of importin β and RanGTP ([Ma et al., 2012]; [Kapinos et al., 2017]). R-DPR/FG-domain interactions are predicted based on the propensity of arginines to undergo cation-pi interactions with aromatic phenylalanine rings (reviewed by [Gallivan and Dougherty, 1999]; [Banani et al., 2017]). Indeed, previous interactome studies predicted R-DPR interactions with FG-Nups including Nup54, 62, 98, 153, and 214 ([Lin et al., ...

[4] = tested on: nuclear import of NLS-BSA; settings: permeabilized HeLa cells; ref Shi et al., 2017; cited from earlier work
Text: as §2

[5] = target: T1, importin β-mediated nuclear import of Rango; assay: Permeabilized cell nuclear import assay, Rango, HeLa; format: cell-based
[6] = target: T1, importin β-mediated nuclear import of Rango; assay: Permeabilized cell nuclear import assay, Rango, mouse primary cortical neurons; format: cell-based; settings: importin β small molecule inhibitor control
Text: All animal procedures were approved by the Johns Hopkins Animal Care and Use Committee. Timed pregnant C57BL/6J females (Jackson Laboratory, Bar Harbor, ME) were sacrificed by cervical dislocation at E16, cortex dissociated, and cells plated at 50,000/well on poly-D-lysine/laminin-coated, optical glass-bottom 96-well plates. Growth medium consisted of Neurobasal supplemented with B27, Glutamax, and penicillin/streptomycin (Gibco/ThermoFisher). At 5–7 days in vitro, neurons were rinsed in prewarmed PBS and permeabilized for 4 min. at 37° in a hypotonic solution containing […] Tris-HCl pH 7.5 (to cause osmotic swelling) and 50–150 mg/ml BSA (for molecular crowding/mechanical support). Following permeabilization, cells were placed on ice and rinsed 2 × 5 min in transport buffer (TRB, 20 mM HEPES, 110 mM KOAc, 2 mM Mg(OAc)2, 5 mM NaOAc, 0.5 mM EGTA, 250 mM sucrose, pH 7.3, with protease inhibitor cocktail). All rinse and assay buffers were supplemented with 50 mg/mL BSA. The optimal hypotonic buffer and BSA concentration varied by batch, and was optimized prior to each set of assays for ability to permeabilize the majority of plasma membranes while maintaining nuclear exclusion of a 70 kD fluorescent dextran (ThermoFisher).
Concentrated whole cell lysates were prepared from HEK293T cells (ATCC, mycoplasma negative and validated by STR profiling), grown in 150 mm dishes and sonicated on ice in 1X TRB in the presence of protease inhibitor cocktail (Roche). The lysates were clarified (15 min, 14000 g, 4C), snap frozen in liquid nitrogen, and stored in single use aliquots at −80C. Total HEK cell RNA was extracted using miRNEasy kits according to the manufacturers’ protocol, with DNase digestion (Qiagen). RNA concentration was measured by Nanodrop (ThermoFisher), and all 260/280 ratios were verified to be > 2.0. Energy regeneration (ER) mix consisted of 100 µM ATP, 100 µM GTP, 4 mM creatine phosphate, and 20 U/mL creatine kinase (Roche).
as §1
For a subset of neuron transport assays, transport was monitored live via time lapse imaging every 5 min for 30 min. In a subset of HeLa assays, transport reactions were centrifuged before use at 14,000g × 15 min to separate soluble and insoluble fractions. In another variation, the transport lysate + DPR and ER mix was allowed to preincubate on the permeabilized HeLa cells for 1 hour prior to initiation of transport, rinsed 1x with TRB, and transport initiated with fresh lysate, cargo, and ER.
Multiple non-overlapping fields per well (4 for time-lapse imaging, 9-16 for fixed imaging), were captured at 40x on an ImageXpress Micro XLS high-content microscope (Molecular Devices, San Jose, CA), and the ratio of nuclear to cytoplasmic fluorescence intensity was calculated using the MetaXpress automated translocation-enhanced module. Raw data were filtered to exclude autofluorescence and the mean N/C ratio from wells without ER or cell lysate was subtracted from all values.

T1 sequence (Q14974 whole entry): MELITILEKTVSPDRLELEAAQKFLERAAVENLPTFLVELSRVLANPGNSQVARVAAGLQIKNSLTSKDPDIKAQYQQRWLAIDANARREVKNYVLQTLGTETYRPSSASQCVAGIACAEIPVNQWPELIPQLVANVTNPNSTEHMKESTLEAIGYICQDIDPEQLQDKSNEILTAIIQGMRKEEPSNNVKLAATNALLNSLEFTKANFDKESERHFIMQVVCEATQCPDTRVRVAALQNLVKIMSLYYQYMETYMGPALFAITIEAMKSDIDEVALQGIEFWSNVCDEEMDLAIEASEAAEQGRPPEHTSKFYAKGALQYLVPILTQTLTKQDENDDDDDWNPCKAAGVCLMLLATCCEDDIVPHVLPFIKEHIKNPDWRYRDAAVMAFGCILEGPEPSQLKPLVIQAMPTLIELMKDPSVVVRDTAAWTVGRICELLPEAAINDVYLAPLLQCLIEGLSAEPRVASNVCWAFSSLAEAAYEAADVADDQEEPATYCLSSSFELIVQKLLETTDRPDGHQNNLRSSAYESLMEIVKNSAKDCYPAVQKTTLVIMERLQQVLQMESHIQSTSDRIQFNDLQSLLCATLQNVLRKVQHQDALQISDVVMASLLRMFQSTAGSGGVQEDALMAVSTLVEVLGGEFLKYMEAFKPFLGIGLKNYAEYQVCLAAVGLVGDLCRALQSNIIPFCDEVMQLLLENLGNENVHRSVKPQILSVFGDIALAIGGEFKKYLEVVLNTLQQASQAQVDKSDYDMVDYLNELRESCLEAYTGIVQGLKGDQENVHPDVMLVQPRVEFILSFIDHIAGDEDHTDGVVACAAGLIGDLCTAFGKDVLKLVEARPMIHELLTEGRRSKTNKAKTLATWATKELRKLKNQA

Molecule: AF488-PR10: PR10 labeled with Alexa Fluor 488 C5-maleimide (PRPRPRPRPRPRPRPRPRPRKC(Alexa Fluor 488 C5‑maleimide))
- Location of AF488-labeled DPR in fractionated transport reactions (confocal) [1]: remained in the supernatant and was present at the nuclear envelope

- Location of AF488-labeled DPR in fractionated transport reactions (confocal) [1]: fully sedimented into the pellet
Molecule: AF488-GR10: GR10 labeled with Alexa Fluor 488 C5-maleimide (GRGRGRGRGRGRGRGRGRGRKC(Alexa Fluor 488 C5‑maleimide))

Molecule: N=C(N)NCCC[C@H](NC(=O)CNC(=O)[C@H](CCCNC(=N)N)NC(=O)CNC(=O)[C@H](CCCNC(=N)N)NC(=O)CNC(=O)[C@H](CCCNC(=N)N)NC(=O)CNC(=O)[C@H](CCCNC(=N)N)NC(=O)CNC(=O)[C@H](CCCNC(=N)N)NC(=O)CNC(=O)[C@H](CCCNC(=N)N)NC(=O)CNC(=O)[C@H](CCCNC(=N)N)NC(=O)CNC(=O)[C@H](CCCNC(=N)N)NC(=O)CNC(=O)[C@H](CCCNC(=N)N)NC(=O)CNC(=O)[C@H](CCCNC(=N)N)NC(=O)CNC(=O)[C@H](CCCNC(=N)N)NC(=O)CNC(=O)[C@H](CCCNC(=N)N)NC(=O)CNC(=O)[C@H](CCCNC(=N)N)NC(=O)CNC(=O)[C@H](CCCNC(=N)N)NC(=O)CNC(=O)[C@H](CCCNC(=N)N)NC(=O)CNC(=O)[C@H](CCCNC(=N)N)NC(=O)CNC(=O)[C@H](CCCNC(=N)N)NC(=O)CNC(=O)[C@H](CCCNC(=N)N)NC(=O)CNC(=O)[C@H](CCCNC(=N)N)NC(=O)CN)C(=O)O [GR20]
- Effect on nuclear transport of fluorescent NLS-NES shuttle proteins [2]: unable to impede nuclear transport

Molecule: N=C(N)NCCC[C@H](NC(=O)[C@@H]1CCCN1C(=O)[C@H](CCCNC(=N)N)NC(=O)[C@@H]1CCCN1C(=O)[C@H](CCCNC(=N)N)NC(=O)[C@@H]1CCCN1C(=O)[C@H](CCCNC(=N)N)NC(=O)[C@@H]1CCCN1C(=O)[C@H](CCCNC(=N)N)NC(=O)[C@@H]1CCCN1C(=O)[C@H](CCCNC(=N)N)NC(=O)[C@@H]1CCCN1C(=O)[C@H](CCCNC(=N)N)NC(=O)[C@@H]1CCCN1C(=O)[C@H](CCCNC(=N)N)NC(=O)[C@@H]1CCCN1C(=O)[C@H](CCCNC(=N)N)NC(=O)[C@@H]1CCCN1C(=O)[C@H](CCCNC(=N)N)NC(=O)[C@@H]1CCCN1C(=O)[C@H](CCCNC(=N)N)NC(=O)[C@@H]1CCCN1C(=O)[C@H](CCCNC(=N)N)NC(=O)[C@@H]1CCCN1C(=O)[C@H](CCCNC(=N)N)NC(=O)[C@@H]1CCCN1C(=O)[C@H](CCCNC(=N)N)NC(=O)[C@@H]1CCCN1C(=O)[C@H](CCCNC(=N)N)NC(=O)[C@@H]1CCCN1C(=O)[C@H](CCCNC(=N)N)NC(=O)[C@@H]1CCCN1C(=O)[C@H](CCCNC(=N)N)NC(=O)[C@@H]1CCCN1C(=O)[C@H](CCCNC(=N)N)NC(=O)[C@@H]1CCCN1C(=O)[C@H](CCCNC(=N)N)NC(=O)[C@@H]1CCCN1C(=O)[C@H](CCCNC(=N)N)NC(=O)[C@@H]1CCCN1)C(=O)O [PR20] (H-PRPRPRPRPRPRPRPRPRPRPRPRPRPRPRPRPRPRPRPR-OH; N-terminus and C-terminus assumed)
- Inhibition of proteosomal degradation (proteasome): shown to inhibit proteosomal degradation
- Binding to FG-domain polymers [3]: bind and stabilize Nup54 and 98 FG-domain polymers
- Effect on nuclear import of NLS-BSA [4]: impeded nuclear import of NLS-BSA
- Effect on nuclear transport of fluorescent NLS-NES shuttle proteins [2]: unable to impede nuclear transport

Molecule: OCCCCCCO [1,6-hexanediol]
- Reversal of mild nuclear import inhibition ([5]; 25 µM PR10): neither 1,6-hexanediol nor exogenous importin β could reverse mild nuclear import inhibition
- Effect on Rango import at baseline ([5]; no DPR): caused dose-dependent inhibition at baseline

- Effect on Rango import in permeabilized neurons [6]: can be inhibited
Molecule: CC(Nc1nc(N2CCCC2)nc2ccccc12)c1ccccc1 (stereo not shown) [importazole, Importazole, reference compound]
